Values quoted from earlier work in patent US10539496B2, “Instrument and method for optical particle sensing” (Invitrox, Inc., priority 2011, dated 2020).

Tested on: platelets
Conditions: platelet inhibition in arterial thrombophilic diseases; share of drug-treated patients

Q: For CC(=O)Oc1ccccc1C(=O)O [ASA, Aspirin], which “treated patients who do not respond to treatment” value is on record?
A: Approximately 25%

Q: For COC(=O)[C@H](c1ccccc1Cl)N1CCc2sccc2C1 [Plavix, clopidogrel bisulfate], which “treated patients who do not respond to treatment” value is on record?
A: ~29%
